Measured values from publication PMC10187937, “Streptothricin F is a bactericidal antibiotic effective against highly drug-resistant gram-negative bacteria that interacts with the 30S subunit of the 70S ribosome” (PLOS Biology, 2023).
In brackets after ≈: the same amount, converted by molar mass. Like-named read-outs stand apart in the source and are kept apart here.

How the values were obtained:
Escherichia coli BIDMC 9 = test system: T1, Escherichia coli BIDMC 9; design: broth microdilution minimal inhibitory concentration against multidrug-resistant clinical isolates; conditions: KPC-2; inhibitor
T1 construct: BIDMC 9
Source text: (§1) Using broth microdilution minimal inhibitory concentration (MIC) testing, we determined the MIC of S-F, S-D, and nourseothricin for a large group of multidrug-resistant CRE. These included strains expressing metallo- and/or serine carbapenemases and the pandrug-resistant, NDM-1–expressing Klebsiella pneumoniae Nevada strain, AR-0663 [18]. For these CRE (n = 39), MIC50 and MIC90 for S-F, S-D, and nourseothricin, respectively, were 2 and 4 (range 1 to 4) μM; 0.25 and 0.5 (range 0.25 to 2) μM; and 0.5 and 1 (range 0.25 to 2) μM. The average MIC was 5.6-fold greater for S-F than for S-D and 4.2-fold greater for S-F than for nourseothricin. […] CRE isolates were from the FDA-CDC Antimicrobial Resistance Isolate Bank (AR-Bank) including the Nevada Strain (AR-0636) and the BIDMC clinical collection sequenced as part of the CRE genomics project. A. baumannii isolates were from the AR-Bank and the Multidrug Resistant Organism Repository and Surveillance Network (MRSN) at the Walter Reed Army Institute of Research (WRAIR). Strains are listed in S3 Table. The single ribosomal operon strain, E. coli SQ110, was from the Coli Genetics Stock Center (Yale University, New Haven, CT) and was originally described by Squire and colleagues.

[1] = test system: T2, Enterobacter cloacae FDA-CDC 136; design: broth microdilution minimal inhibitory concentration against multidrug-resistant clinical isolates; conditions: KPC; inhibitor
T2 construct: FDA-CDC 136
Source text: as §1

[2] = test system: T3, Escherichia coli BIDMC 17; design: broth microdilution minimal inhibitory concentration against multidrug-resistant clinical isolates; conditions: KPC-2; inhibitor
T3 construct: BIDMC 17
Source text: as §1

[3] = test system: T4, Enterobacter cloacae BIDMC 8; design: broth microdilution minimal inhibitory concentration against multidrug-resistant clinical isolates; conditions: KPC-3; inhibitor
T4 construct: BIDMC 8
Source text: as §1

[4] = test system: T5, Klebsiella pneumoniae BIDMC 11; design: broth microdilution minimal inhibitory concentration against multidrug-resistant clinical isolates; conditions: KPC-4; inhibitor
T5 construct: BIDMC 11
Source text: as §1

[5] = test system: T6, Klebsiella pneumoniae BIDMC 2; design: broth microdilution minimal inhibitory concentration against multidrug-resistant clinical isolates; conditions: KPC-3; inhibitor
T6 construct: BIDMC 2
Source text: as §1

[6] = test system: T7, Escherichia coli BIDMC 15; design: broth microdilution minimal inhibitory concentration against multidrug-resistant clinical isolates; conditions: KPC-2; inhibitor
T7 construct: BIDMC 15
Source text: as §1

[7] = test system: T8, Klebsiella pneumoniae FDA-CDC 117; design: broth microdilution minimal inhibitory concentration against multidrug-resistant clinical isolates; conditions: KPC-3; inhibitor
T8 construct: FDA-CDC 117
Source text: as §1

[8] = test system: T9, Klebsiella pneumoniae BIDMC 5; design: broth microdilution minimal inhibitory concentration against multidrug-resistant clinical isolates; conditions: KPC-3; inhibitor
T9 construct: BIDMC 5
Source text: as §1

[9] = test system: T10, Klebsiella pneumoniae BIDMC 10; design: broth microdilution minimal inhibitory concentration against multidrug-resistant clinical isolates; conditions: KPC-3; inhibitor
T10 construct: BIDMC 10
Source text: as §1

[10] = test system: T11, Klebsiella pneumoniae BIDMC 1; design: broth microdilution minimal inhibitory concentration against multidrug-resistant clinical isolates; conditions: KPC-3; inhibitor
T11 construct: BIDMC 1
Source text: as §1

[11] = test system: T12, Klebsiella oxytoca FDA-CDC 147; design: broth microdilution minimal inhibitory concentration against multidrug-resistant clinical isolates; conditions: KPC; inhibitor
T12 construct: FDA-CDC 147
Source text: as §1

[12] = test system: T13, Klebsiella pneumoniae BIDMC 4; design: broth microdilution minimal inhibitory concentration against multidrug-resistant clinical isolates; conditions: KPC-3; inhibitor
T13 construct: BIDMC 4
Source text: as §1

Escherichia coli BIDMC 6 = test system: T14, Escherichia coli BIDMC 6; design: broth microdilution minimal inhibitory concentration against multidrug-resistant clinical isolates; conditions: KPC-2; inhibitor
T14 construct: BIDMC 6
Source text: as §1

Escherichia coli BIDMC 3 = test system: T15, Escherichia coli BIDMC 3; design: broth microdilution minimal inhibitory concentration against multidrug-resistant clinical isolates; conditions: KPC-2; inhibitor
T15 construct: BIDMC 3
Source text: as §1

[13] = test system: T16, Klebsiella pneumoniae BIDMC 7; design: broth microdilution minimal inhibitory concentration against multidrug-resistant clinical isolates; conditions: KPC-3; inhibitor
T16 construct: BIDMC 7
Source text: as §1

[14] = test system: T17, Acinetobacter baumannii FDA-CDC 310; assay: microbe, parasite or virus in culture; design: broth microdilution minimal inhibitory concentration against multidrug-resistant clinical isolates
T17 construct: FDA-CDC 310
Source text: as §1

[15] = test system: T18, Acinetobacter baumannii FDA-CDC 311; assay: microbe, parasite or virus in culture; design: broth microdilution minimal inhibitory concentration against multidrug-resistant clinical isolates
T18 construct: FDA-CDC 311
Source text: as §1

[16] = test system: T19, Klebsiella pneumoniae FDA-CDC 34; assay: microbe, parasite or virus in culture; design: broth microdilution minimal inhibitory concentration against multidrug-resistant clinical isolates
T19 construct: FDA-CDC 34
Source text: as §1

[17] = test system: T20, Acinetobacter baumannii FDA-CDC 309; assay: microbe, parasite or virus in culture; design: broth microdilution minimal inhibitory concentration against multidrug-resistant clinical isolates
T20 construct: FDA-CDC 309
Source text: as §1

[18] = test system: T21, Escherichia coli FDA-CDC 128; assay: microbe, parasite or virus in culture; design: broth microdilution minimal inhibitory concentration against multidrug-resistant clinical isolates
T21 construct: FDA-CDC 128
Source text: as §1

[19] = test system: T22, Escherichia coli FDA-CDC 119; assay: microbe, parasite or virus in culture; design: broth microdilution minimal inhibitory concentration against multidrug-resistant clinical isolates; conditions: FDACDC119, NDM
T22 construct: FDA-CDC 119
Source text: as §1

[20] = test system: T23, Enterobacter aerogenes FDA-CDC 161; assay: microbe, parasite or virus in culture; design: broth microdilution minimal inhibitory concentration against multidrug-resistant clinical isolates; conditions: Klebsiella aerogenes, FDACDC161, IMP-4
T23 construct: FDA-CDC 161
Source text: as §1

[21] = test system: T24, Klebsiella pneumoniae CDC 636; assay: microbe, parasite or virus in culture; design: broth microdilution minimal inhibitory concentration against multidrug-resistant clinical isolates; conditions: CDC636, NDM
T24 construct: CDC 636
Source text: as §1

[22] = test system: T25, Escherichia coli FDA-CDC 149; assay: microbe, parasite or virus in culture; design: broth microdilution minimal inhibitory concentration against multidrug-resistant clinical isolates; conditions: FDACDC149, NDM
T25 construct: FDA-CDC 149
Source text: as §1

[23] = test system: T26, Escherichia coli FDA-CDC 137; assay: microbe, parasite or virus in culture; design: broth microdilution minimal inhibitory concentration against multidrug-resistant clinical isolates
T26 construct: FDA-CDC 137
Source text: as §1

[24] = test system: T27, Acinetobacter baumannii FDA-CDC 308; assay: microbe, parasite or virus in culture; design: broth microdilution minimal inhibitory concentration against multidrug-resistant clinical isolates
T27 construct: FDA-CDC 308
Source text: as §1

[25] = test system: T28, Escherichia coli FDA-CDC 118; assay: microbe, parasite or virus in culture; design: broth microdilution minimal inhibitory concentration against multidrug-resistant clinical isolates; conditions: FDACDC118, NDM
T28 construct: FDA-CDC 118
Source text: as §1

[26] = biological target: T29, rProtein L28 (50S, near the E-site of the A. baumannii 70S ribosome) (Acinetobacter baumannii, UniProt B7I4T0); assay: cryo-EM structure of complex; type: binding; conditions: 0.1 uM ribosome, 100 uM ligand (not seen at 10 uM); second site, 50S near E-site; presumably nonspecific per authors
T29 construct: gene rpmB; native 50S ribosomal protein within purified 70S ribosome; site near the E-site, contact at H20
T29 sequence (B7I4T0 whole entry): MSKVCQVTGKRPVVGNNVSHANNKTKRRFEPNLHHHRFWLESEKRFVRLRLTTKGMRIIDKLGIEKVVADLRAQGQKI

## NCCC[C@H](N)CC(=O)NCCC[C@H](N)CC(=O)NCCC[C@H](N)CC(=O)N[C@@H]1[C@H](O)[C@@H](OC(N)=O)[C@@H](CO)O[C@H]1NC1=N[C@@H]2C(=O)NC[C@@H](O)[C@H]2N1 [S-D, streptothricin D]
Escherichia coli BIDMC 9
  S-D MIC: 0.5 µM
[1]
  S-D MIC: 0.5 µM
[2]
  S-D MIC: 0.5 µM
[3]
  S-D MIC: 0.25 µM
[4]
  S-D MIC: 0.25 µM
[5]
  S-D MIC: 0.25 µM
[6]
  S-D MIC: 0.5 µM
[7]
  S-D MIC: 0.25 µM
[8]
  S-D MIC: 0.25 µM
[9]
  S-D MIC: 0.25 µM
[10]
  S-D MIC: 0.25 µM
[11]
  S-D MIC: 0.25 µM
[12]
  S-D MIC: 0.25 µM
Escherichia coli BIDMC 6
  S-D MIC: 0.5 µM
Escherichia coli BIDMC 3
  S-D MIC: 0.5 µM
[13]
  S-D MIC: 0.25 µM
[14]; FDACDC310, OXA-23, OXA-82, read-out: S-D MIC
  MIC: 2 µM (≈ 1.52 µg/mL)
[15]; FDACDC311, OXA-23, OXA-82, read-out: S-D MIC
  MIC: 2 µM (≈ 1.52 µg/mL)
[16]; FDACDC34, IMP-4, read-out: S-D MIC
  MIC: 0.25 µM (≈ 0.19 µg/mL)
[17]; FDACDC309, OXA-23, OXA-82, read-out: S-D MIC
  MIC: 2 µM (≈ 1.52 µg/mL)
[18]; FDACDC128, NDM-1, read-out: S-D MIC
  MIC: 1 µM (≈ 0.759 µg/mL)
[19]; read-out: S-D MIC
  MIC: 0.5 µM (≈ 0.379 µg/mL)
[20]; read-out: S-D MIC
  MIC: 0.5 µM (≈ 0.379 µg/mL)
[21]; read-out: S-D MIC
  MIC: 0.25 µM (≈ 0.19 µg/mL)
[22]; read-out: S-D MIC
  MIC: 0.5 µM (≈ 0.379 µg/mL)
[23]; FDACDC137, NDM-6, read-out: S-D MIC
  MIC: 0.5 µM (≈ 0.379 µg/mL)
[24]; FDACDC308, OXA-71, read-out: S-D MIC
  MIC: 0.25 µM (≈ 0.19 µg/mL)
[25]; read-out: S-D MIC
  MIC: 1 µM (≈ 0.759 µg/mL)

## NCCC[C@H](N)CC(=O)N[C@@H]1[C@H](O)[C@@H](OC(N)=O)[C@@H](CO)O[C@H]1N=C1N[C@@H]2[C@H](O)CNC(=O)[C@H]2N1 [S-F, streptothricin F]
[26]
  cryo-EM structure of 70S complex: S-F and S-D overlap at this site, interacting with H20 of rProtein L28
Escherichia coli BIDMC 9
  S-F MIC: 4 µM
[1]
  S-F MIC: 2 µM
[2]
  S-F MIC: 2 µM
[3]
  S-F MIC: 4 µM
[4]
  S-F MIC: 2 µM
[5]
  S-F MIC: 4 µM
[6]
  S-F MIC: 2 µM
[7]
  S-F MIC: 1 µM
[8]
  S-F MIC: 2 µM
[9]
  S-F MIC: 2 µM
[10]
  S-F MIC: 2 µM
[11]
  S-F MIC: 2 µM
[12]
  S-F MIC: 2 µM
Escherichia coli BIDMC 6
  S-F MIC: 2 µM
Escherichia coli BIDMC 3
  S-F MIC: 4 µM
[13]
  S-F MIC: 2 µM
[14]; FDACDC310, OXA-23, OXA-82, read-out: S-F MIC
  MIC: 8 µM (≈ 4.02 µg/mL)
[15]; FDACDC311, OXA-23, OXA-82, read-out: S-F MIC
  MIC: 8 µM (≈ 4.02 µg/mL)
[16]; FDACDC34, IMP-4, read-out: S-F MIC
  MIC: 2 µM (≈ 1.01 µg/mL)
[17]; FDACDC309, OXA-23, OXA-82, read-out: S-F MIC
  MIC: 8 µM (≈ 4.02 µg/mL)
[18]; FDACDC128, NDM-1, read-out: S-F MIC
  MIC: 4 µM (≈ 2.01 µg/mL)
[19]; read-out: S-F MIC
  MIC: 4 µM (≈ 2.01 µg/mL)
[20]; read-out: S-F MIC
  MIC: 2 µM (≈ 1.01 µg/mL)
[21]; read-out: S-F MIC
  MIC: 1 µM (≈ 0.503 µg/mL)
[22]; read-out: S-F MIC
  MIC: 4 µM (≈ 2.01 µg/mL)
[23]; FDACDC137, NDM-6, read-out: S-F MIC
  MIC: 2 µM (≈ 1.01 µg/mL)
[24]; FDACDC308, OXA-71, read-out: S-F MIC
  MIC: 1 µM (≈ 0.503 µg/mL)
[25]; read-out: S-F MIC
  MIC: 4 µM (≈ 2.01 µg/mL)
